According to ChEMBL document CHEMBL1201862, “PubChem BioAssay data set” (2004):
Active and inactive are the calls of the source.

Experiments:
[1] = viability of uninfected HEp-2 cells – cell-based, HTS, cytotoxicity control for RSV inhibitor project, dose response (AID 2410); type: functional; conditions: human respiratory syncytial virus
Paired box protein Pax-8 = Paired box protein Pax-8 (Homo sapiens, UniProt Q06710); experiment: PAX8 transcriptional activity inhibition in RMG-I – RMG-I cells, luciferase, cherry-pick, dose response (AID 687027); type: functional, cell-based;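 further: luciferase reporter driven by Pax8 target thyroperoxidase promoter measured by SteadyGlo luminescence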
Chain of Paired box protein Pax-8 (Q06710 whole entry): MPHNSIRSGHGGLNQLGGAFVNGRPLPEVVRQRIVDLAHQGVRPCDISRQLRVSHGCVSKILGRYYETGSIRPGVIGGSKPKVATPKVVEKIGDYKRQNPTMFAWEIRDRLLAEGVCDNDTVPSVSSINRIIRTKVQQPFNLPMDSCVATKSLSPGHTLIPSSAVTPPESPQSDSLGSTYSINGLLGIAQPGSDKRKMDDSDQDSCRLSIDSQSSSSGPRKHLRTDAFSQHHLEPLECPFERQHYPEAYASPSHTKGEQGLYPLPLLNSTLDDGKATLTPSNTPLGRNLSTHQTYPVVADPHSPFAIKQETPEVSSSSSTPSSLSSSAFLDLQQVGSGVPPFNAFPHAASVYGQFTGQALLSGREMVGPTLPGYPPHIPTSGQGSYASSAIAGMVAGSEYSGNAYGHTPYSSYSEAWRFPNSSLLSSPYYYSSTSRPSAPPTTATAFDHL

Cytochrome P450 2C19 = Cytochrome P450 2C19 (Homo sapiens, UniProt P33261); experiment: Cytochrome panel assay with activity outcomes. Panel member name: p450-cyp2c19 Compounds with AC50 equal or less than 10 uM are considered active; type: functional
Chain of Cytochrome P450 2C19 (P33261 whole entry): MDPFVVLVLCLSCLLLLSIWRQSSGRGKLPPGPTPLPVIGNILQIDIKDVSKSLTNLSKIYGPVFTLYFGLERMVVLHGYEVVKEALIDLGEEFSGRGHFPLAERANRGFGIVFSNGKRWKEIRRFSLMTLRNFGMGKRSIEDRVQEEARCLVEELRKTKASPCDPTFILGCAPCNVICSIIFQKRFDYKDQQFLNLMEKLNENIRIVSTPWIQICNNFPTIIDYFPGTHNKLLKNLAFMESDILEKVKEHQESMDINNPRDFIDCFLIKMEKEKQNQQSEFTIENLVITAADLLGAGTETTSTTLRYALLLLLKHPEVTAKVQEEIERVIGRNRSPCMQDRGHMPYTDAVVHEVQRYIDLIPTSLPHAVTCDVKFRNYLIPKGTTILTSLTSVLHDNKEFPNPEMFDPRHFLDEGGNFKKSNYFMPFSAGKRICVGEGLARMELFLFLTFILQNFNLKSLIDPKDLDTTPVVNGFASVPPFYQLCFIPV

Cytochrome P450 2C9 = Cytochrome P450 2C9 (Homo sapiens, UniProt P11712)
Chain of Cytochrome P450 2C9 (P11712 whole entry): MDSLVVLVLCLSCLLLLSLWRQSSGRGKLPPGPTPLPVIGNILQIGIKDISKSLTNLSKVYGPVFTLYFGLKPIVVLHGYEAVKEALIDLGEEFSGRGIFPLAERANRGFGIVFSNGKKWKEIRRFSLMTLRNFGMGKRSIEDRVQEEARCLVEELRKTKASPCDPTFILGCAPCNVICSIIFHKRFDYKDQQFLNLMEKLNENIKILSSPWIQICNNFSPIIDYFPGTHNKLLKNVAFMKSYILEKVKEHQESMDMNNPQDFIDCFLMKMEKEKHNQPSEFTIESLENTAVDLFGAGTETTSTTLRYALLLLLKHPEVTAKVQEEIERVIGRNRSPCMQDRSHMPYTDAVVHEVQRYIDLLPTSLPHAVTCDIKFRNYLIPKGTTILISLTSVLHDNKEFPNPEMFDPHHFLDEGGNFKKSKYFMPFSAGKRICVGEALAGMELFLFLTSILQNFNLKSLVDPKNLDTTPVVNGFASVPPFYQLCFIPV

cells = type: functional
[2] = biological target: T1, Heat shock factor protein 1 (Mus musculus, UniProt P38532); experiment: decrease of HSF1-responsive luciferase luminescence – cell-based, NIH3T3, dose retest, confirmation (AID 2382); type: functional;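 further: NIH3T3 fibroblasts with HSF1-driven luciferase reporter stressed by proteasome inhibitor MG132; luminescence from HSF1-driven luciferase expression after 8 hours of MG132 stress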
T1 sequence (P38532 whole entry): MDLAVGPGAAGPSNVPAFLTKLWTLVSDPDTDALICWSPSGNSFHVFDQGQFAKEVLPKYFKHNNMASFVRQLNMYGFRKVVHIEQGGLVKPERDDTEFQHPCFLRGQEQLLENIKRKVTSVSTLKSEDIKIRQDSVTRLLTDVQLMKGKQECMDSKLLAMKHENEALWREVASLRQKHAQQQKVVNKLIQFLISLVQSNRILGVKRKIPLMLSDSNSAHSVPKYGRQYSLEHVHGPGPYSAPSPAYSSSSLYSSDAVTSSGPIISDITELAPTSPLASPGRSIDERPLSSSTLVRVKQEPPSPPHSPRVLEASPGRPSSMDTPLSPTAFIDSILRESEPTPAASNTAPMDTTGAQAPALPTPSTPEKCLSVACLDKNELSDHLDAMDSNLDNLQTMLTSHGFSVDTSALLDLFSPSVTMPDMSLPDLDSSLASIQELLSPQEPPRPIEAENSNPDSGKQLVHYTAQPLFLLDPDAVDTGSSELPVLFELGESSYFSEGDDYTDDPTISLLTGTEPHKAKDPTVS

[3] = Luminescence Cell-Based Dose Response HTS to Identify Activators of Luciferase Translation or Activity in H4 […] Cells. [Related pubchem assays: 1829 (Project Summary), 1814 (Primary HTS)]; type: functional
Cytochrome P450 2D6 = Cytochrome P450 2D6 (Homo sapiens, UniProt P10635);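 further: CYP2D6 member of a cytochrome P450 panel assay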
Chain of Cytochrome P450 2D6 (P10635 whole entry): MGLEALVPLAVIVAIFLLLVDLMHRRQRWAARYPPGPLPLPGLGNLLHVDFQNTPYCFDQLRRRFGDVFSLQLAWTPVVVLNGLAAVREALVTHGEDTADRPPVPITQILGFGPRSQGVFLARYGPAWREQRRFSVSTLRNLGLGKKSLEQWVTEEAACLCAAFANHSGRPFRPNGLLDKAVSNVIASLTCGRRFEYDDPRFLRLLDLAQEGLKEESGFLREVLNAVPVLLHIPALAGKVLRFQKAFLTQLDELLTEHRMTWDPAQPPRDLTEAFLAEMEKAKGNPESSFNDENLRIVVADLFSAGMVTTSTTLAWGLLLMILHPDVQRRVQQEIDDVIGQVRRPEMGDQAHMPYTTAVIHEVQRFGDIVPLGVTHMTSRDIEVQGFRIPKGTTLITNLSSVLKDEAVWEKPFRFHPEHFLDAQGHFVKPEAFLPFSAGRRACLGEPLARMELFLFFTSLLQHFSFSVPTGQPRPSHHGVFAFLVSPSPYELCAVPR

[4] = biological target: T2, Corticotropin-releasing factor receptor 2/Corticotropin-releasing factor-binding protein (Homo sapiens, UniProt P24387+Q13324); experiment: Dose Response confirmation of uHTS hits for small molecule antagonists of the CRF-binding protein and CRF-R2 receptor complex.; type: functional; conditions: read-out: IC50_Mean
T2 sequence (Q13324 whole entry): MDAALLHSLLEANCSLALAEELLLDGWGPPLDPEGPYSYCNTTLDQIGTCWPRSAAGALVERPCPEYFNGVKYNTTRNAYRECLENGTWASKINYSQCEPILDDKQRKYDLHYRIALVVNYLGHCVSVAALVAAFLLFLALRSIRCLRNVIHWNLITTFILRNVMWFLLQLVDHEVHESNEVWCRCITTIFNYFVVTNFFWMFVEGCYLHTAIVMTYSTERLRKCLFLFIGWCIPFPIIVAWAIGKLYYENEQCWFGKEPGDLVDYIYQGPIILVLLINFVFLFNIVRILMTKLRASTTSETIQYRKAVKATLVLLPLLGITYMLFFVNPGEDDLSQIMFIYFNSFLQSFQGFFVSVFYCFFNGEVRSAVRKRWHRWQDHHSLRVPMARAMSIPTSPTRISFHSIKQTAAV
T2 sequence (P24387 whole entry): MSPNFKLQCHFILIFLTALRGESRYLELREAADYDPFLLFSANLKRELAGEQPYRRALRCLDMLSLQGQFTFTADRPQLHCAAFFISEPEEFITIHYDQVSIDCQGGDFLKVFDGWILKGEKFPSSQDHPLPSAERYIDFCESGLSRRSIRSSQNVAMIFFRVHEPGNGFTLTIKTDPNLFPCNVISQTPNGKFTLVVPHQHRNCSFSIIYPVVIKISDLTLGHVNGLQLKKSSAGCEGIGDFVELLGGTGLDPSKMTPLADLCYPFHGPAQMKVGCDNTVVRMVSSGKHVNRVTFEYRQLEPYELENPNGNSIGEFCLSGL

[5] = biological target: T2, Corticotropin-releasing factor receptor 2/Corticotropin-releasing factor-binding protein; experiment: activators of CRF receptor 2 with binding protein – uHTS hits, confirmation (AID 602473); type: functional; conditions: read-out: EC50_Mean
[6] = NIH-3T3 fibroblast cytotoxicity, dose response, cytotoxicity control, cell-based, fluorescence, Alamar Blue, secondary assay (AID 2327); type: functional;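 further: NIH-3T3 mouse fibroblasts cultured with fluconazole at 8 µg/mL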

## O=S(=O)(/C=C/c1ccccc1)N1CCC(c2nc(O)c3nnn(Cc4ccccc4)c3n2)CC1
[1]
  CC50: 27.7 µM (active)

## Cn1c(CCN2CCCC2)nc2cc(NS(=O)(=O)c3ccccc3)ccc21
Paired box protein Pax-8
  AC50: 6.61 µM (active)

## CCCCCCC/C=C\CCCCCCCCC(=O)O
Cytochrome P450 2C19; read-out: AC50
  AC50: 39.8 µM (inconclusive)
Cytochrome P450 2C9
  AC50: 39.8 µM (inconclusive)

## N#C/C(=C(\O)Nc1ccccc1)c1nc2ccccc2[nH]1
cells
  IC50: 2.43 µM (active)

## O=C(OCc1cc(=O)n2cc(Br)ccc2n1)C1COc2ccccc2O1 (stereo not drawn)
[2]
  EC50: > 195 µM (not active)

## Nc1c(-c2cccs2)cnn1-c1nc(-c2ccc(F)cc2)cs1
[3]
  EC50: 304 nM (active)
Cytochrome P450 2C9
  AC50: 0.158 µM (inconclusive)

## COc1cc(C(=O)OC2C[C@H]3CC[C@@H](C2)N3C)ccc1O (stereo partly drawn)
Cytochrome P450 2D6
  AC50: 7.94 µM (inconclusive)

## O=C(c1ccncc1)N1CCC2(CCN(Cc3ccccc3)CC2)CC1
Cytochrome P450 2C19
  AC50: inconclusive
Cytochrome P450 2D6
  AC50: 12.6 µM (inconclusive)

## COc1ccc2c3c([nH]c2c1)[C@@H](CO)N(C(=O)Nc1cccc(F)c1)CC31CCN(S(=O)(=O)c2cccc(C)c2)CC1
Paired box protein Pax-8
  AC50: 6 µM (active)

## CC1CCC(NC(=O)c2ccc3c(c2)S(=O)(=O)c2ccccc2C3=O)CC1 (stereo not drawn)
[1]
  CC50: > 50 µM (active)

## COc1c(OC(C)=O)ccc(/C=C/c2ccc3cccc(OC)c3n2)c1[N+](=O)[O-]
[1]
  CC50: > 50 µM (active)

## O=C1CC(N2CC=C(c3ccc(F)cc3)CC2)C(=O)N1c1ccc(F)cc1 (stereo not drawn)
[2]
  EC50: > 195 µM (not active)

## CC1CCCN(C/C=C/c2ccccc2[N+](=O)[O-])C1 (stereo not drawn)
Cytochrome P450 2C9
  AC50: 0.2 µM (inconclusive)

## CC1Cc2ccccc2N1C(=O)COC(=O)c1ccc(S(=O)(=O)N(C)C)cc1 (stereo not drawn)
[2]
  EC50: > 195 µM (not active)

## COCCCNCC(=O)c1c(N)n(Cc2ccccc2)c(=O)n(C)c1=O
Cytochrome P450 2C19; read-out: AC50
  AC50: 35.5 µM (inconclusive)
Cytochrome P450 2D6
  AC50: 14.1 µM (inconclusive)

## O=C(CNC(=S)N(CCCN1CCOCC1)Cc1cccs1)NCc1ccccc1Cl
[2]
  EC50: > 195 µM (not active)

## Cc1ccc(S(=O)(=O)N2CCC(C(=O)OCc3ccccc3)CC2)cc1C
cells
  IC50: 18.6 µM (active)

## Cc1n[nH]c(=S)n(/N=C/c2cccs2)c1=O
[4]
  IC50: > 47.1 µM (inactive)
[5]
  EC50: > 53 µM (inactive)

## COc1ccccc1C1NC(=O)CCC1[N+](=O)[O-] (stereo not drawn)
[2]
  EC50: > 195 µM (not active)

## CC(C)OC(=O)C(C)Oc1ccc(C(=O)NCCc2ccccc2)cc1 (stereo not drawn)
cells
  IC50: 10.3 µM (active)

## CSCCC(=O)N1CCCC(CNC(=O)c2ccc(-c3ccccc3)cc2)C1 (stereo not drawn)
cells
  IC50: 11.6 µM (active)

## COc1cccc(-c2cncnc2NCc2cnc(C)cn2)c1
Cytochrome P450 2D6
  AC50: 15.8 µM (inconclusive)

## CCn1c2ccccc2c2cc(NC(=O)c3ccco3)ccc21
[1]
  CC50: 16.2 µM (active)

## CCC(C)NC(=O)C1(C)CCC(=O)N1Cc1ccccc1OC (stereo not drawn)
[2]
  EC50: > 195 µM (not active)

## CCOc1nc(C)ccc1-c1noc(-c2cccnc2)n1
[2]
  EC50: > 195 µM (not active)

## O=c1oc(CCO)cc2ccc(Br)cc12
[4]
  IC50: > 47.1 µM (inactive)
[5]
  EC50: > 53 µM (inactive)

## CCC1(C)Cc2c(sc3nnn(CC(=O)Nc4ccc(C)cc4)c(=O)c23)CO1 (stereo not drawn)
Cytochrome P450 2D6
  AC50: 22.4 µM (inconclusive)

## C[C@@H]1CN([C@@H](C)CO)C(=O)Cc2cc(NC(=O)Nc3ccc(C(F)(F)F)cc3)ccc2O[C@H]1CN(C)Cc1ccc(Cl)c(Cl)c1
Paired box protein Pax-8
  AC50: 11.1 µM (active)

## C=CCn1c(COc2ccccc2)nnc1SCC(=O)N/N=C/c1ccc(C)cc1
Cytochrome P450 2C19; read-out: AC50
  AC50: 15.8 µM (inconclusive)
Cytochrome P450 2D6
  AC50: 39.8 µM (inconclusive)

## CCNC(=O)COC(=O)c1cc(-c2ccc(OC)cc2)nc2ccccc12
Cytochrome P450 2C9
  AC50: 2.51 µM (inconclusive)

## N=C(CN1CCCCC1)NS(=O)(=O)c1cc(Cl)cc(Cl)c1
[4]
  IC50: > 47.1 µM (inactive)
[5]
  EC50: > 53 µM (inactive)

## CCSc1nnc(-c2ccccc2NC(C)=O)c(O)n1
Cytochrome P450 2C19
  AC50: inconclusive
Cytochrome P450 2C9
  AC50: 31.6 µM (inconclusive)

## CCOC(=O)c1cnc2ccc(C(=O)OC)cc2c1Nc1ccc(C(=O)O)cc1
Paired box protein Pax-8
  AC50: 66.4 µM (active)

## COc1ccc(-c2nc(CSCC(=O)NCCC3=CCCCC3)c(C)o2)cc1OC
[1]
  CC50: > 50 µM (active)

## O=S(=O)(c1ccccc1F)N1CC[C@@H]2[C@H](CO)Nc3ccc(C4=CCCCC4)cc3[C@@H]21
Paired box protein Pax-8
  AC50: 28.2 µM (active)

## CCOC(=O)C[C@@H](C(=O)OCC)[C@@H]1CCCCC1=O
Cytochrome P450 2D6
  AC50: 6.31 µM (inconclusive)

## COc1ccc(Oc2ncc3ncc(=O)n(Cc4cccs4)c3n2)cc1
Cytochrome P450 2C19; read-out: AC50
  AC50: 25.1 µM (inconclusive)
Cytochrome P450 2D6
  AC50: 39.8 µM (inconclusive)

## Cc1ccccc1-c1cncnc1N(C)Cc1ccco1
Cytochrome P450 2D6
  AC50: 20 µM (inconclusive)

## CC(=O)N(/N=C/c1cccc(C)c1)c1nc(-c2ccc(Br)cc2)cs1
Cytochrome P450 2C19; read-out: AC50
  AC50: 0.0708 µM (inconclusive)
Cytochrome P450 2C9
  AC50: 1.12 µM (inconclusive)

## Cc1c(C(=O)Nc2ccc3c(c2)OCCO3)cnn1C
[2]
  EC50: 3.49 µM (active)

## O=C(OCn1nnc2ccccc2c1=O)c1cccs1
cells
  IC50: 15.6 µM (active)

## CC1=CCC2C(=O)N(c3ccc(C)c(Br)c3)C(=O)C2C1 (stereo not drawn)
[2]
  EC50: > 195 µM (not active)

## Cc1cc(Br)c2[nH]cc(CCNC(=O)c3ccco3)c2c1
[2]
  EC50: > 195 µM (not active)

## Cc1ccc(OC(=O)c2cccc([N+](=O)[O-])c2)c(-n2nc3ccccc3n2)c1
[3]
  EC50: 588 nM (active)

## O=S1(=O)OC(c2ccc(O)cc2)(c2ccc(O)cc2)c2ccccc21 [PHENOLSULFONPHTHALEIN]
Cytochrome P450 2C9
  AC50: 6.31 µM (inconclusive)

## COC(=O)c1nn(-c2ccccc2)c(=O)cc1Oc1ccccc1
Cytochrome P450 2C9
  AC50: 11.2 µM (inconclusive)

## Cc1cc(C)cc(NC(=O)C2CCCN(c3nccc(C)n3)C2)c1 (stereo not drawn)
[4]
  IC50: > 47.1 µM (inactive)
[5]
  EC50: > 53 µM (inactive)

## Cc1cc(C(C)(C)C)ccc1OCC(=O)N/N=C\c1c(C)n(C)n(-c2ccccc2)c1=O
[2]
  EC50: > 195 µM (not active)

## CCCOc1ccc2c3c(c(=O)oc2c1)CCCC3
[1]
  CC50: > 50 µM (active)

## CCSc1nc2c(c(-c3ccc(C)o3)c1C#N)CCCC2
[1]
  CC50: 37.5 µM (active)

## CC(C)OC(=O)c1cc2ccccc2oc1=O
Cytochrome P450 2C9
  AC50: 10 µM (inconclusive)

## COc1cc(CC(=O)NCc2cccs2)cc(OC)c1OC
[4]
  IC50: > 47.1 µM (inactive)
[5]
  EC50: > 53 µM (inactive)

## NC(=O)c1c(NC(=O)c2ccccc2F)sc2c1CCCC2
[6]
  EC50: 25.1 µM (active)

## COc1ccc(C(CC(=O)O)c2ccc3c(c2)OCO3)cc1 (stereo not drawn)
[4]
  IC50: > 47.1 µM (inactive)
[5]
  EC50: > 53 µM (inactive)
